Measurements: patent publication US4725683A, “Fluorophenoxyphenoxypropionates and derivatives thereof” (The Dow Chemical Company, priority 1985, dated 1988)

Tests used:
Format in all cases: in vivo
[1] = system: Annual Rye; assay: Selective postemergence, track sprayer
Experimental: (§1) Representative compositions of the present invention were evaluated for the postemergence control of species of plants listed in Table A. In these evaluations, pots of the plant species listed in Table A, grown to a height of about 10 cms, were used. Aqueous spray compositions, containing various amounts of 2-[4-(2-fluoro-4-trifluoromethylphenoxy)-phenoxy]propionic acid methy ester, i.e., 125 ppm, 62.5 ppm, 31.25 ppm, 15.6 ppm, 7.8 ppm and 3.9 ppm, respectively, were applied to separate pots. The spray compositions were made by mixing the active ingredient in acetone to 1/2 the final volume, i.e., twice the final concentration. An equal amount of water was added to the active ingredient/acetone mixture wherein the water contained 0.1 percent by weight of TWEEN® 200 surfactant. The application to the plants was made to the point of run-off and was carried out with conventional spraying equipment. Other pots were sprayed with similar compositions containing no toxicant to serve as controls. Thereafter, the pots were maintained under conditions conducive for plant growth. Two weeks after treatment, the pots were examined for plant growth and evaluated on a scale of 0 to 100 where 0 represents no effect and 100 represents complete kill. The results of the examination of the treated pots are set forth below in Table A.
(§2) To further define the selective postemergence herbicidal characteristics of compounds of the present invention, chemicals were applied to additional species of grasses as listed in Table F. Chemicals evaluated were 2-[4-(4-bromo-2-fluorophenoxy)phenoxy]propionic acid methyl ester and its R isomer. Treatment conditions were similar to those described in Example A except that chemicals were delivered through a track sprayer set to deliver the appropriate dosages in 280.6 L/hectare of water containing 0.1% Tween-20 surfactant.

[2] = system: Barnyardgrass; assay: Selective postemergence, track sprayer
Experimental: as §1, §2

[3] = system: Blackgrass; assay: Selective postemergence, track sprayer
Experimental: as §1, §2

[4] = system: Barnyard Grass; assay: Postemergent activity
How it was run: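 Potted plants about 10 cms tall were sprayed to run-off with conventional equipment using aqueous compositions. These were made by dissolving the active ingredient in acetone at twice the final concentration and diluting with an equal volume of water containing 0.1 percent TWEEN® 200 surfactant. Toxicant-free sprays served as controls. After two weeks of growth, injury was scored from 0 (no effect) to 100 (complete kill).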

[5] = system: Crabgrass; assay: Postemergent activity
How it was run: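 Potted crabgrass plants grown to roughly 10 cms tall were sprayed to run-off with aqueous compositions of the test compound, which was first dissolved in acetone at twice the final concentration and then diluted with an equal volume of water containing 0.1 percent by weight TWEEN® 200 surfactant. Pots sprayed without toxicant served as controls. After two weeks under growth-favorable conditions, plant control was scored from 0 (no effect) to 100 (complete kill).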

[6] = system: Johnson Grass; assay: Postemergent activity
Experimental: as §1

[7] = system: cotton; assay: Postemergent activity; conditions: 125 ppm
Experimental: as §1

[8] = system: jimson weed; assay: Postemergent activity; conditions: 125 ppm
Experimental: as §1

[9] = system: pigweed; assay: Postemergent activity; conditions: 125 ppm
Experimental: as §1

[10] = system: rape; assay: Postemergent activity; conditions: 125 ppm
Experimental: as §1

[11] = system: soybeans; assay: Postemergent activity; conditions: 125 ppm
Experimental: as §1

[12] = system: sugar beets; assay: Postemergent activity; conditions: 125 ppm
Experimental: as §1

[13] = system: velvet leaf; assay: Postemergent activity; conditions: 125 ppm
Experimental: as §1

[14] = system: cotton; assay: Preemergent activity; conditions: 0.28 kgs/hectare, seeds
Experimental: (§3) In a representative operation, 2-[4-(2-fluoro-4-trifluoromethylphenoxy)phenoxy]propionic acid methyl ester, to be utilized in a series of tests, is dissolved in acetone to one half of the final volume (twice the final concentration) to be used and the acetone solution in each case is admixed with an equal volume of water containing 0.1 percent by weight of Tween-20 surface active material (Tween-20 is a trademark of Atlas Chemical Company). The composition, generally in the nature of an emulsion, was employed to treat separate respective seed beds of sandy loam soil of good nutrient content wherein each seed bed contained separate groups of good viable seeds, each group being of one of a known plant species. The various beds were positioned side by side and exposed to substantially identical conditions of temperature and light. Each bed was maintained so as to prevent any interaction with the test compound in different seed beds. Each seed bed was treated with the composition as a spray employing conventional spraying equipment to deposit a predetermined amount of the compound uniformly throughout the surface of the bed. Another seed bed was treated only with the acetone-Tween-20 water mixture with no chemical added to serve as a control. After treatment, the seed beds were maintained for two weeks under greenhouse conditions conducive for good plant growth and watered as necessary. Control refers to the reduction in growth of the test species in the presence of the test chemical relative to the observed growth of the same species in the absence of the test chemical.
(§4) Substantially the same procedures described in Example C were repeated using as the active ingredients

[15] = system: jimson weed; assay: Preemergent activity; conditions: 0.28 kgs/hectare, seeds
Experimental: as §3, §4

[16] = system: pigweed; assay: Preemergent activity; conditions: 0.28 kgs/hectare, seeds
Experimental: as §3, §4

[17] = system: rape; assay: Preemergent activity; conditions: 0.28 kgs/hectare, seeds
Experimental: as §3, §4

[18] = system: soybean; assay: Preemergent activity; conditions: 0.28 kgs/hectare, seeds
Experimental: as §3, §4

[19] = system: sugarbeets; assay: Preemergent activity; conditions: 0.28 kgs/hectare, seeds
Experimental: as §3, §4

[20] = system: velvet leaf; assay: Preemergent activity; conditions: 0.28 kgs/hectare, seeds
Experimental: as §3, §4

[21] = system: yellow nutsedge; assay: Preemergent activity; conditions: 0.28 kgs/hectare, seeds
Experimental: as §3, §4

COC(=O)C(C)Oc1ccc(Oc2ccc(Br)cc2F)cc1 (racemic) [Example 4-Bromo-, 2-[4-(4-bromo-2-fluorophenoxy)phenoxy]propionic acid methyl ester]
Percent Control ([1]; 0.0011 kgs/hectare): 0% | Percent Control ([1]; 0.0023 kgs/hectare): 0% | Percent Control ([1]; 0.0045 kgs/hectare): 0% | Percent Control ([1]; 0.009 kgs/hectare): 20% | Percent Control ([1]; 0.035 kgs/hectare): 40% | Percent Control ([1]; 0.07 kgs/hectare): 100% | Percent Control ([1]; 0.14 kgs/hectare): 100% | Percent Control ([1]; 0.28 kgs/hectare): 100% | Percent Control ([1]; 0.56 kgs/hectare): 100% | Percent Control ([2]; 0.0011 kgs/hectare): 40% | Percent Control ([2]; 0.0023 kgs/hectare): 70% | Percent Control ([2]; 0.0045 kgs/hectare): 100% | Percent Control ([2]; 0.009 kgs/hectare): 100% | Percent Control ([2]; 0.035 kgs/hectare): 100% | Percent Control ([2]; 0.07 kgs/hectare): 100% | Percent Control ([2]; 0.14 kgs/hectare): 100% | Percent Control ([2]; 0.28 kgs/hectare): 100% | Percent Control ([2]; 0.56 kgs/hectare): 100% | Percent Control ([3]; 0.0011 kgs/hectare): 30% | Percent Control ([3]; 0.0023 kgs/hectare): 50% | Percent Control ([3]; 0.0045 kgs/hectare): 50% | Percent Control ([3]; 0.009 kgs/hectare): 100% | Percent Control ([3]; 0.035 kgs/hectare): 100% | Percent Control ([3]; 0.07 kgs/hectare): 100% | Percent Control ([3]; 0.14 kgs/hectare): 100% | Percent Control ([3]; 0.28 kgs/hectare): 100% | Percent Control ([3]; 0.56 kgs/hectare): 100%

COC(=O)C(C)Oc1ccc(Oc2ccc(C(F)(F)F)cc2F)cc1 (stereo not drawn) [2-[4-(2-fluoro-4-trifluoromethylphenoxy)phenoxy]propionic acid methyl ester]
% Control ([4]; 3.9 ppm): 50% | % Control ([4]; 7.8 ppm): 100% | % Control ([4]; 15.6 ppm): 100% | % Control ([4]; 31.25 ppm): 100% | % Control ([4]; 62.5 ppm): 100% | % Control ([4]; 125 ppm): 100% | % Control ([5]; 3.9 ppm): 90% | % Control ([5]; 7.8 ppm): 100% | % Control ([5]; 15.6 ppm): 100% | % Control ([5]; 31.25 ppm): 100% | % Control ([5]; 62.5 ppm): 100% | % Control ([5]; 125 ppm): 100% | % Control ([6]; 3.9 ppm): 60% | % Control ([6]; 7.8 ppm): 100% | % Control ([6]; 15.6 ppm): 100% | % Control ([6]; 31.25 ppm): 100% | % Control ([6]; 62.5 ppm): 100% | % Control ([6]; 125 ppm): 100% | phytotoxic effect [7]: inactive | phytotoxic effect [8]: inactive | phytotoxic effect [9]: inactive | phytotoxic effect [10]: inactive | phytotoxic effect [11]: inactive | phytotoxic effect [12]: inactive | phytotoxic effect [13]: inactive | phytotoxic effect [14]: inactive | phytotoxic effect [15]: inactive | phytotoxic effect [16]: inactive | phytotoxic effect [17]: inactive | phytotoxic effect [18]: inactive | phytotoxic effect [19]: inactive | phytotoxic effect [20]: inactive | phytotoxic effect [21]: inactive

COC(=O)[C@@H](C)Oc1ccc(Oc2ccc(Br)cc2F)cc1 [4-Bromo-(R-Enantiomer), R enantiomer of 2-[4-(4-bromo-2-fluorophenoxy)phenoxy]propionic acid methyl ester]
Percent Control ([1]; 0.00055 kgs/hectare): 0% | Percent Control ([1]; 0.0011 kgs/hectare): 0% | Percent Control ([1]; 0.0023 kgs/hectare): 0% | Percent Control ([1]; 0.0045 kgs/hectare): 0% | Percent Control ([1]; 0.009 kgs/hectare): 20% | Percent Control ([1]; 0.018 kgs/hectare): 30% | Percent Control ([1]; 0.035 kgs/hectare): 60% | Percent Control ([1]; 0.07 kgs/hectare): 70% | Percent Control ([1]; 0.14 kgs/hectare): 90% | Percent Control ([1]; 0.28 kgs/hectare): 90% | Percent Control ([2]; 0.00055 kgs/hectare): 90% | Percent Control ([2]; 0.0011 kgs/hectare): 80% | Percent Control ([2]; 0.0023 kgs/hectare): 100% | Percent Control ([2]; 0.0045 kgs/hectare): 100% | Percent Control ([2]; 0.009 kgs/hectare): 100% | Percent Control ([2]; 0.018 kgs/hectare): 100% | Percent Control ([2]; 0.035 kgs/hectare): 100% | Percent Control ([2]; 0.07 kgs/hectare): 100% | Percent Control ([2]; 0.14 kgs/hectare): 100% | Percent Control ([2]; 0.28 kgs/hectare): 100% | Percent Control ([3]; 0.00055 kgs/hectare): 50% | Percent Control ([3]; 0.0011 kgs/hectare): 60% | Percent Control ([3]; 0.0023 kgs/hectare): 60% | Percent Control ([3]; 0.0045 kgs/hectare): 60% | Percent Control ([3]; 0.009 kgs/hectare): 80% | Percent Control ([3]; 0.018 kgs/hectare): 100% | Percent Control ([3]; 0.035 kgs/hectare): 100% | Percent Control ([3]; 0.07 kgs/hectare): 100% | Percent Control ([3]; 0.14 kgs/hectare): 100% | Percent Control ([3]; 0.28 kgs/hectare): 100%
